Consider three compounds from patent US6531603B1, “Polymorphic forms of 6-[4-(1-cyclohexyl-1H-tetrazol-5-yl)butoxy]-3,4-dihydro-2(1H)-quinolinone” (priority 2001, dated 2003).

One data set in a line: bioavailability. The format is in vivo. To be noted: Form A as prepared by the procedures of the '479 patent.
Data set [1] can be described thus: aqueous solubility of cilostazol polymorphic forms. In kind it is physicochemical.
Data set [2] can be described thus: solid state phase transformation of disturbed sample on heating by DSC. In kind it is physicochemical. The settings on record: sample disturbed with scratching / stressed, DSC heating from 30° C. to approximately 200° C. at 10° C. per minute, followed by melt at about 160° C. (Form A). The source says:
Characterization of Form A of cilostazol, Form B of cilostazol, and Form C of cilostazol was further completed using DSC thermograms, shown in FIGS. 3, 4, and 5, respectively, with DSC thermograms for combinations of Form A and Form B; Form B and Form C; and Forms A, B, and C are shown in FIGS. 6, 7, and 8 respectively. DSC data were generated using a Mettler-Toledo DSC 821^e (Columbus, Ohio) with a Julabo FT900 intercooler chiller (Julabo Company; Allentown, Pa.). In general, samples were analyzed in a vented, sealed aluminum pan. Because the endothermic peak may vary depending upon the rate of heating and the calibration and precision of the instrument, with the amount of peak variation dependent upon the heating rate used, all thermograms included herein were run under the same, consistent conditions: heating at 10° C. per minute under a nitrogen purge at 40 mL/minute. The resultant sample of Example 1A was disturbed with scratching, which caused the cilostazol sample to undergo a solid state phase transformation at approximately 119° C. followed by an endotherm of melt at approximately 160° C. (Form A) during heating by DSC from 30° C. to approximately 200° C. at 10° C. per minute. When the sample is stressed and reheated (as detailed in Example 2A), the sample undergoes a solid state phase transformation at approximately 147° C. followed by an endotherm of melt at about 160° C. […]

The nature of data set [3]: stability of the crystalline form. In kind it is physicochemical.

For `O=C1CCc2cc(OCCCCc3nnnn3C3CCCCC3)ccc2N1` [Form A, 6-[4-(1-cyclohexyl-1H-tetrazol-5-yl)butoxy]-3,4-dihydro-2(1H)-quinolinone], the bioavailability entry in “bioavailability” was “low”. Further, in data set [1] (Form A as prepared by the procedures of the '479 patent), the aqueous solubility result is recorded as “low”.
For the compound `O=C1CCc2cc(OCCCCc3nnnn3C3CCCCC3)ccc2N1` [Form B, 6-[4-(1-cyclohexyl-1H-tetrazol-5-yl)butoxy]-3,4-dihydro-2(1H)-quinolinone], the “solid state phase transformation temperature (to Form A)” value in data set [2] (listed as Example 1A) is “approximately 119 °C”. Besides, the “solubility relative to Form A” value in data set [1] (inferred from lower melting point in DSC thermogram (FIG. 8), solubility itself not measured) is “more soluble than Form A”. Moreover, the “stability of the polymorphic form” value in data set [3] was “stable”.
For `O=C1CCc2cc(OCCCCc3nnnn3C3CCCCC3)ccc2N1` [Form C, 6-[4-(1-cyclohexyl-1H-tetrazol-5-yl)butoxy]-3,4-dihydro-2(1H)-quinolinone], in data set [2] (listed as Example 2A), the “solid state phase transformation temperature (to Form A)” value is “approximately 147 °C”.
